Target: T1, PRMT5/MEP50 (Homo sapiens, UniProt O14744)
T1 construct: Flag-PRMT5; 6His-MEP50
Assay: PRMT5 Biochemical Assay (PRMT5/MEP50 enzyme assay on peptide substrate, 3H-SAM Flashplate)
Description: General Materials. S-adenosylmethionine (SAM), S-adenosylhomocysteine (SAH), bicine, KCl, Tween20, dimethylsulfoxide (DMSO), bovine skin gelatin (BSG), and Tris(2-carboxyethyl)phosphine hydrochloride solution (TCEP) were purchased from Sigma-Aldrich at the highest level of purity possible. ^3H-SAM was purchase from American Radiolabeled Chemicals with a specific activity of 80 Ci/mmol. 384-well streptavidin Flashplates were purchased from PerkinElmer.
Substrates. Peptide representative of human histone H4 residues 1-15 was synthesized with a C-terminal linker-affinity tag motif and a C-terminal amide cap by 21st Century Biochemicals. The peptide was high high-perfomance liquid chromatography (HPLC) purified to greater than 95% purity and confirmed by liquid chromatography mass spectrometry (LC-MS). The sequence was Ac-[…][K-Biot]-amide (SEQ ID NO.:3).
Molecular Biology: Full-length human PRMT5 (NM_006109.3) transcript variant 1 clone was amplified from a fetal brain cDNA library, incorporating flanking 5′ sequence encoding a FLAG tag ([…]) (SEQ ID NO.:4) fused directly to Ala 2 of PRMT5. Full-length human MEP50 (NM_024102) clone was amplified from a human testis cDNA library incorporating a 5′ sequence encoding a 6-histidine tag (MHHHHHH) (SEQ ID NO.:5) fused directly to Arg 2 of MEP50. The amplified genes were sublconed into pENTR/D/TEV (Life Technologies) and subsequently transferred by Gateway™ attL×attR recombination to pDEST8 baculvirus expression vector (Life Technologies).
Protein Expression. Recombinant baculovirus and Baculovirus-Infected Insect Cells (BIIC) were generated according to Bac-to-Bac kit instructions (Life Technologies) and Wasilko, 2006, respectively. Protein over-expression was accomplished by infecting exponentially growing Spodoptera frugiperda (SF9) cell culture at 1.2×10^6cell/ml with a 5000 fold dilution of BIIC stock. Infections were carried out at 27° C. for 72 hours, harvested by centrifugation, and stored at −80° C. for purification.
Protein Purification. […] Flag-PRMT5/6His-MeP50 was eluted with 300 mM Imidazole in the same buffer. The purity of recovered protein was 87%. Reference: Wasilko, D. J. and S. E. Lee: “TIPS: titerless infected-cells preservation and scale-up” Bioprocess J., 5 (2006), pp. 29-32.
General Procedure for PRMT5/MEP50 Enzyme Assays on Peptide Substrates. The assays were all performed in a buffer consisting of 20 mM Bicine (pH=7.6), 1 mM TCEP, 0.005% BSG, and 0.002% Tween20, prepared on the day of use. Compounds in 100% DMSO (1 ul) were spotted into a polypropylene 384-well V-bottom plates (Greiner) using a Platemate Plus outfitted with a 384-channel head (Thermo Scientific). DMSO (1 ul) was added to Columns 11, 12, 23, 24, rows A-H for the maximum signal control and 1 ul of SAH, a known product and inhibitor of PRMT5/MEP50, was added to columns 11, 12, 23, 24, rows I-P for the minimum signal control. A cocktail (40 ul) containing the PRMT5/MEP50 enzyme and the peptide was added by Multidrop Combi (Thermo-Fisher). The compounds were allowed to incubate with PRMT5/MEP50 for 30 min at 25 degrees Celsius, then a cocktail (10 ul) containing ^3H-SAM was added to initiate the reaction (final volume=51 ul). The final concentrations of the components were as follows: PRMT5/MEP50 was 4 nM, ^3H-SAM was 75 nM, peptide was 40 nM, SAH in the minimum signal control wells was 100 uM, and the DMSO concentration was […]. The assays were stopped by the addition of non-radioactive SAM (10 ul) to a final concentration of 600 uM, which dilutes the ^3H-SAM to a level where its incorporation into the peptide substrate is no longer detectable. 50 ul of the reaction in the 384-well polypropylene plate was then transferred to a 384-well Flashplate and the biotinylated peptides were allowed to bind to the streptavidin surface for at least 1 hour before being washed three times with 0.1% Tween20 in a Biotek ELx405 plate washer. […]

T1 sequence (O14744 with tags, fused parts or gaps): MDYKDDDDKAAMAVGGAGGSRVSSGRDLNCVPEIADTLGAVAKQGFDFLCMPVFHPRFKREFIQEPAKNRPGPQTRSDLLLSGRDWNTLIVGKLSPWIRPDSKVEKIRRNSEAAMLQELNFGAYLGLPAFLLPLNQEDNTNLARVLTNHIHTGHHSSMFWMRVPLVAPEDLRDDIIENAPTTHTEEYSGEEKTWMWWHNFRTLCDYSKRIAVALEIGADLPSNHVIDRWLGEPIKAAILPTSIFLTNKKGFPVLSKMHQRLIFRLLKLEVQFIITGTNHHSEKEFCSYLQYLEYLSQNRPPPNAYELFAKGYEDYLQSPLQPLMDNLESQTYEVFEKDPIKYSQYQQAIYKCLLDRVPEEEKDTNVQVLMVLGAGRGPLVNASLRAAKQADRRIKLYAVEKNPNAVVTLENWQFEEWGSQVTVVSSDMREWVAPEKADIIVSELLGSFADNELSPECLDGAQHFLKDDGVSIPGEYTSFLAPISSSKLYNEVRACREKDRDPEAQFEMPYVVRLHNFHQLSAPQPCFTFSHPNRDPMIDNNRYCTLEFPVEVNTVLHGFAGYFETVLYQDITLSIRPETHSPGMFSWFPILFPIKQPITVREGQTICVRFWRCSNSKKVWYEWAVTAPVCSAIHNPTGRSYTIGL
T1 sequence (Q9BQA1 with tags, fused parts or gaps partner): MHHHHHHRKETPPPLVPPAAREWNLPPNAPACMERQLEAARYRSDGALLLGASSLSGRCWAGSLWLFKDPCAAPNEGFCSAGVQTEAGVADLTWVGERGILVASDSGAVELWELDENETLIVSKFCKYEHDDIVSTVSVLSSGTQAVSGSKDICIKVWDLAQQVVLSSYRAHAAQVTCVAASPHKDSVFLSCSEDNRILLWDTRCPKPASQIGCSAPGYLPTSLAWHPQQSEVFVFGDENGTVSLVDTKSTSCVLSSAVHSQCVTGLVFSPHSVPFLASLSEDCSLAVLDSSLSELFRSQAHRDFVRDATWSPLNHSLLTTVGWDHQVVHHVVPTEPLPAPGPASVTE

| Compound | IC50 |
| --- | --- |
| OC(COc1cccc(-c2cncc(F)c2)c1)CN1CCc2ccccc2C1 (stereo not drawn) [Compound 76] | 1000 to 10000 nM |
| OC(COc1cccc(-c2ccc(F)cc2)c1)CN1CCc2ccccc2C1 (stereo not drawn) [Compound 77] | 1000 to 10000 nM |
| Cc1ccc(-c2cccc(OCC(O)CN3CCc4ccccc4C3)c2)cn1 (stereo not drawn) [Compound 78] | 1000 to 10000 nM |
| O=C(NC1CCOCC1)c1cccc(NCC(O)CN2CCc3ccccc3C2)c1 (stereo not drawn) [Compound 79] | 10000 to 40000 nM |
| OC(COc1cccc(-c2cccc(C(F)(F)F)c2)c1)CN1CCc2ccccc2C1 (stereo not drawn) [Compound 87] | 1000 to 10000 nM |
| OC(COc1cccc(-c2cccc(Cl)c2)c1)CN1CCc2ccccc2C1 (stereo not drawn) [Compound 91] | 1000 to 10000 nM |
| Oc1ccc(-c2cccc(OCC(O)CN3CCc4ccccc4C3)c2)cc1 (stereo not drawn) [Compound 96] | 1000 to 10000 nM |
| OC(COc1cccc(-c2ccncc2)c1)CN1CCc2ccccc2C1 (stereo not drawn) [Compound 97] | 1000 to 10000 nM |
| OC(COc1cccc(-c2ccccn2)c1)CN1CCc2ccccc2C1 (stereo not drawn) [Compound 98] | 1000 to 10000 nM |
| CN(CC(O)CN1CCc2ccccc2C1)c1cccc(C(=O)NC2CCOCC2)c1 (stereo not drawn) [Compound 99] | 10000 to 40000 nM |
| COc1cccc2c1CN(CC(O)COc1cccc(-c3ccc4ncn(C)c4c3)c1)CC2 (stereo not drawn) [Compound 100] | 1000 to 10000 nM |
| CC1CN(CC(O)COc2cccc(-c3ccc4ncn(C)c4c3)c2)Cc2ccccc21 (stereo not drawn) [Compound 101] | 1000 to 10000 nM |
| Cn1cc2cc(-c3cccc(OCC(O)CN4CCc5ccccc5C4)c3)ccc2n1 (stereo not drawn) [Compound 115] | 1000 to 10000 nM |
| Cn1cnc2ccc(-c3nccc(NCC(O)CN4CCc5ccccc5C4)n3)cc21 (stereo not drawn) [Compound 120, 1-(3,4-dihydroisoquinolin-2(1H)-yl)-3-((2-(1-methyl-1H-benzo[d]imidazol-6-yl)pyrimidin-4-yl)amino)propan-2-ol] | 1000 to 10000 nM |
| Cn1cnc2ccc(-c3cncc(NCC(O)CN4CCc5ccccc5C4)n3)cc21 (stereo not drawn) [Compound 121, 1-(3,4-dihydroisoquinolin-2(1H)-yl)-3-((6-(1-methyl-1H-benzo[d]imidazol-6-yl)pyrazin-2-yl)amino)propan-2-ol] | 101 to 1000 nM |
| CC1Cc2ccccc2CN1CC(O)COc1cccc(-c2ccc3ncn(C)c3c2)c1 (stereo not drawn) [Compound 122] | 1000 to 10000 nM |
| OC(COc1cccc(-c2ccc(C(F)(F)F)cc2C(F)(F)F)c1)CN1CCc2ccccc2C1 (stereo not drawn) [Compound 124] | 101 to 1000 nM |
| CN(C)c1ncc(-c2cccc(OCC(O)CN3CCc4ccccc4C3)c2)cn1 (stereo not drawn) [Compound 125, 1-(3,4-dihydroisoquinolin-2(1H)-yl)-3-(3-(2-(dimethylamino)pyrimidin-5-yl)phenoxy)propan-2-ol] | 101 to 1000 nM |
| O=C(c1cccc(-c2cccc(OCC(O)CN3CCc4ccccc4C3)c2)c1)N1CCOCC1 (stereo not drawn) [Compound 126, (3′-(3-(3,4-dihydroisoquinolin-2(1H)-yl)-2-hydroxypropoxy)-[1,1′-biphenyl]-3-yl)(morpholino)methanone] | 101 to 1000 nM |
| OC(COc1cccc(-c2ccc(C(F)(F)F)cc2Cl)c1)CN1CCc2ccccc2C1 (stereo not drawn) [Compound 127] | 101 to 1000 nM |

The next lines start with the values.

| IC50 | Compound |
| --- | --- |
| 101 to 1000 nM | COc1cccc(-c2cccc(OCC(O)CN3CCc4ccccc4C3)c2)c1 (stereo not drawn) [Compound 74] |
| 101 to 1000 nM | COc1ccc(-c2cccc(OCC(O)CN3CCc4ccccc4C3)c2)cc1 (stereo not drawn) [Compound 75, 1-(3,4-dihydroisoquinolin-2(1H)-yl)-3-((4′-methoxy-[1,1′-biphenyl]-3-yl)oxy)propan-2-ol] |
| 101 to 1000 nM | CC1c2ccccc2CCN1CC(O)COc1cccc(-c2ccc3ncn(C)c3c2)c1 (stereo not drawn) [Compound 80] |
| 101 to 1000 nM | CC(C)n1cnc2ccc(-c3cccc(OCC(O)CN4CCc5ccccc5C4)c3)cc21 (stereo not drawn) [Compound 81] |
| 101 to 1000 nM | COc1ccc(Cn2cnc3ccc(-c4cccc(OCC(O)CN5CCc6ccccc6C5)c4)cc32)cc1 (stereo not drawn) [Compound 82, 1-(3,4-dihydroisoquinolin-2(1H)-yl)-3-(3-(1-(4-methoxybenzyl)-1H-benzo[d]imidazol-6-yl)phenoxy)propan-2-ol] |
| 101 to 1000 nM | OC(COc1cccc(-c2ccc3nc[nH]c3c2)c1)CN1CCc2ccccc2C1 (stereo not drawn) [Compound 83] |
| 101 to 1000 nM | OC(COc1cccc(-c2ccc3c(c2)OCCO3)c1)CN1CCc2ccccc2C1 (stereo not drawn) [Compound 85, 1-(3-(2,3-dihydrobenzo[b][1,4]dioxin-6-yl)phenoxy)-3-(3,4-dihydroisoquinolin-2(1H)-yl)propan-2-ol] |
| 101 to 1000 nM | OC(COc1cccc(-c2cccc3c2oc2ccccc23)c1)CN1CCc2ccccc2C1 (stereo not drawn) [Compound 86, 1-(3-(dibenzo[b,d]furan-4-yl)phenoxy)-3-(3,4-dihydroisoquinolin-2(1H)-yl)propan-2-ol] |
| 101 to 1000 nM | COc1ccc(-c2cccc(OCC(O)CN3CCc4ccccc4C3)c2)c(Cl)c1 (stereo not drawn) [Compound 88] |
| 101 to 1000 nM | OC(COc1cccc(-c2cnc3ccccc3c2)c1)CN1CCc2ccccc2C1 (stereo not drawn) [Compound 89, 1-(3,4-dihydroisoquinolin-2(1H)-yl)-3-(3-(quinolin-3-yl)phenoxy)propan-2-ol] |
| 101 to 1000 nM | COc1ccc(-c2cccc(OCC(O)CN3CCc4ccccc4C3)c2)c(C)c1 (stereo not drawn) [Compound 90] |
| 101 to 1000 nM | OC(COc1cccc(-c2ccccc2Cl)c1)CN1CCc2ccccc2C1 (stereo not drawn) [Compound 92] |
| 101 to 1000 nM | N#Cc1ccccc1-c1cccc(OCC(O)CN2CCc3ccccc3C2)c1 (stereo not drawn) [Compound 93] |
| 101 to 1000 nM | N#Cc1ccc(-c2cccc(OCC(O)CN3CCc4ccccc4C3)c2)cc1 (stereo not drawn) [Compound 94] |
| 101 to 1000 nM | Oc1cccc(-c2cccc(OCC(O)CN3CCc4ccccc4C3)c2)c1 (stereo not drawn) [Compound 95] |
| 101 to 1000 nM | OC(COc1cccc(-c2ccc3ncn(C4CCOCC4)c3c2)c1)CN1CCc2ccccc2C1 (stereo not drawn) [Compound 103, 1-(3,4-dihydroisoquinolin-2(1H)-yl)-3-(3-(1-(tetrahydro-2H-pyran-4-yl)-1H-benzo[d]imidazol-6-yl)phenoxy)propan-2-ol] |
| 101 to 1000 nM | OC(COc1cccc(-c2ccc3ncn(-c4ccccc4)c3c2)c1)CN1CCc2ccccc2C1 (stereo not drawn) [Compound 104, 1-(3,4-dihydroisoquinolin-2(1H)-yl)-3-(3-(1-phenyl-1H-benzo[d]imidazol-6-yl)phenoxy)propan-2-ol] |
| 101 to 1000 nM | OC(COc1cccc(-c2ccc3[nH]ncc3c2)c1)CN1CCc2ccccc2C1 (stereo not drawn) [Compound 107] |
| 101 to 1000 nM | O=c1[nH]c2ccc(-c3cccc(OCC(O)CN4CCc5ccccc5C4)c3)cc2[nH]1 (stereo not drawn) [Compound 109, 5-(3-(3-(3,4-dihydroisoquinolin-2(1H)-yl)-2-hydroxypropoxy)phenyl)-1H-benzo[d]imidazol-2(3H)-one] |
| 101 to 1000 nM | COc1cc(Cl)cc(-c2cccc(OCC(O)CN3CCc4ccccc4C3)c2)c1 (stereo not drawn) [Compound 110] |
| 101 to 1000 nM | N#CCc1cccc(-c2cccc(OCC(O)CN3CCc4ccccc4C3)c2)c1 (stereo not drawn) [Compound 111] |
| 101 to 1000 nM | Cc1ccncc1-c1cccc(OCC(O)CN2CCc3ccccc3C2)c1 (stereo not drawn) [Compound 113, 1-(3,4-dihydroisoquinolin-2(1H)-yl)-3-(3-(4-methylpyridin-3-yl)phenoxy)propan-2-ol] |
| 101 to 1000 nM | Cn1cc2ccc(-c3cccc(OCC(O)CN4CCc5ccccc5C4)c3)cc2n1 (stereo not drawn) [Compound 114] |
| 101 to 1000 nM | Cn1cnc2ccc(-c3cccc(NCC(O)CN4CCc5ccccc5C4)n3)cc21 (stereo not drawn) [Compound 117, 1-(3,4-Dihydroisoquinolin-2(1H)-yl)-3-((6-(1-methyl-1H-benzo[d]imidazol-6-yl)pyridin-2-yl)amino)propan-2-ol] |
| 101 to 1000 nM | Cn1cnc2ccc(-c3ccnc(NCC(O)CN4CCc5ccccc5C4)n3)cc21 (stereo not drawn) [Compound 119] |
